Assays:
[1] = cited from earlier work
C. felis fleas = assay: Efficacy against fleas on dogs, oral 250/35/600 μg/kg study; assay type: in vivo; details: Day 3, following 3 consecutive doses of 250 μg/kg per day
Protocol: The second objective is to investigate the pharmacodynamics between the fluralaner plasmatic dose and the effectiveness against ticks. • IVP: Investigational Veterinary Product, is pure Fluralaner+DMSO (250 μg/kg on Days 0 to 3 (0.25 mL/kg), then 35 μg/kg on Days 4 to 9 (0.35 mL/kg), then 600 μg/kg on Day 11) • Control product is DMSO (0.25 mL/kg on Days 0 to 3, then 0.35 mL/kg on Days 4 to 9)
Dogs were infested with approximately 50 (±4) viable, adult, unfed R. sanguineus ticks on Days 1, 3, 5, 8, 10, 12, 16, 22, 26 and 30 to assess efficacy. Ticks will be removed and counted on Days 3, 5, 7 (48 hours±2 hours after infestation) and 9, 11, 13, 17, 24, 27, 32 (24 hours±2 hours after infestation). […] Fleas will be removed and counted on Days −5 (+1 day) and 3 (24 hours±2 hours after infestation).
The efficacy against ticks and fleas were calculated for the study groups at each assessment day according to the formulas given below.
Efficacy was calculated as follows: Efficacy (%)=100×(Mc−Mt)/Mc, where: • Mc=Mean number of live ticks (categories 1 to 2) or live fleas on dogs in the negative control group (group 1) at a specific time point. • Mt=Mean number of live ticks (categories 1 to 2) or live fleas on dogs in the IVP group (group 2) • at a specific time point.

R. sanguineus ticks = assay: Acaricidal efficacy on dogs, oral 35 μg/kg study; assay type: in vivo; details: 48 h after the last of four doses of 35 μg/kg per day
Protocol: The second objective was to investigate the pharmacodynamics between the fluralaner plasmatic dose and the effectiveness against fleas. • IVP: Investigational Veterinary Product, is pure Fluralaner+DMSO (35 μg/kg on Days 0 to 3 (0.35 mL/kg)) • Control product is DMSO (0.35 mL/kg on Days 0 to 3)
On Days 0, 1, 2 and 3, all dogs assigned to group 2 received the Investigational Veterinary Product. On Days 0 to 3 all dogs in group 1 received the control product at a volume equal to the dogs in group 2. Dogs assigned to group 1 received the control product and served as Placebo controls. The quantity of Investigational Veterinary Product and control product administered was calculated according to the dog's individual body weight measured on Day −1.
Dogs were infested with approximately 100 (±8) viable, adult, C. felis fleas on Day −6 for randomisation purposes and on Days 1, 2 and 3 to assess efficacy. Fleas were removed and counted on Days −5, 2, 3 and 4 (24 hours±2 hours after infestation). Dogs were also infested with approximately 50 (±4) viable, adult, unfed R. sanguineus ticks on Day 4 to assess acaricidal efficacy. Ticks will be removed and counted on Day 5 (24 hours±2 hours after infestation).
The efficacy against ticks and fleas were calculated for the study groups at each assessment day according to the formulas given below. […]

[2] = Comparison of plasma concentration simulated from experimental data with literature data; design: species or system dogs; details: simulation from experimental data (Table 6)
[3] = Adverse event observation, oral study against ticks; assay type: in vivo, beagle dogs; details: oral 250/35/600 μg/kg regimen, dogs
Protocol: Dogs assigned to group 1 received the control product and served as Placebo controls. Dogs were observed hourly±15 minutes for four hours after administration on Day 0 and once daily two hours±15 minutes after Investigational Veterinary Product or control product administration on Days 1, 2 and 3. Observations were conducted for each individual dog.

## Cc1cc(C2=NOC(c3cc(Cl)cc(Cl)c3)(C(F)(F)F)C2)ccc1C(=O)NCC(=O)NCC(F)(F)F (centres unmarked) [fluralaner, Fluralaner]
[1]; dogs and cats
  hepatic clearance: low hepatic clearance
[1]; topical and iv, 12.5 to 50 mg/kg dogs, 20 to 80 mg/kg cats
  AUC in cats relative to dogs: about half the AUC in dogs
C. felis fleas
  efficacy against fleas: 92%
R. sanguineus ticks
  efficacy against ticks: 40.4%
[2]
  AUCextra: 68221.98 µg·days/L
  AUClast: 483104.77 µg·days/L
  AUCtot: 551326.76 µg·days/L
  t1/2: 229 h
  tmax: 72 h
[2]; compared with literature oral 50.0 mg/kg values
  Cmax: 31994.2 ng/mL
[3]
  Adverse Events as a result of the product: No Adverse Events

From US12714696B2, “Low dose fluralaner compositions for protection against parasitic invertebrate pest” (VIRBAC, priority 2019, dated 2026)
